Test results published in US12173018B2, “Penicillin-binding protein inhibitors” (priority 2018, dated 2024).
Converted amounts (≈) assume the structure as drawn. Like-named read-outs stand apart in the source and are kept apart here.

Tests used:
[1] = tested on: E. coli 901C; assay: microbe, parasite or virus in culture; format: cell-based; details: Escherichia coli; hyper-permeable E. coli 901C, broth microdilution; read-out: MIC E. coli 901C
Summary of the method: (§1)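 Colonies from Mueller Hinton II agar were grown 3-5 hours at 37° C in cation-supplemented broth, adjusted by OD600, then added to 2-fold compound dilutions at 5×10^5 CFU/mL. After 16-20 hours at 37° C, MICs were scored visually.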

[2] = tested on: E. coli AG100A; assay: microbe, parasite or virus in culture; format: cell-based; details: Escherichia coli, read-out: MIC E. coli AG100A
Summary of the method: as §1

[3] = tested on: E. coli D22; assay: microbe, parasite or virus in culture; format: cell-based; details: Escherichia coli; hyper-permeable E. coli D22, broth microdilution; read-out: MIC E. coli D22
Summary of the method: as §1

[4] = tested on: K. pneumoniae SI-117; assay: microbe, parasite or virus in culture; format: cell-based; details: Klebsiella pneumoniae, SI117, read-out: MIC K. pneumoniae SI-117
Summary of the method: as §1

[5] = tested on: K. pneumoniae UMM; assay: microbe, parasite or virus in culture; format: cell-based; details: Klebsiella pneumoniae; K. pneumoniae UMM producing SHV-5 and KPC-2; read-out: MIC K. pneumoniae UMM
Summary of the method: as §1

[6] = tested on: P. aeruginosa (ΔmexAB-oprM); assay: microbe, parasite or virus in culture; format: cell-based; details: Pseudomonas aeruginosa, read-out: MIC P. aeruginosa ΔmexAB-OprM
Summary of the method: as §1

[7] = tested on: P. aeruginosa ATCC 35151; assay: microbe, parasite or virus in culture; format: cell-based; details: Pseudomonas aeruginosa, ATCC35151; hyper-permeable P. aeruginosa ATCC 35151; read-out: MIC P. aeruginosa ATCC 35151
Summary of the method: as §1

[8] = tested on: K. pneumoniae 848844; assay: microbe, parasite or virus in culture; format: cell-based, Klebsiella pneumoniae; details: Klebsiella pneumoniae; K. pneumoniae 848844 producing SHV-11 and KPC-2; read-out: MIC K. pneumoniae 848844
Summary of the method: as §1

[9] = tested on: P. aeruginosa PAO1; assay: Broth microdilution MIC, P. aeruginosa PAO1; format: cell-based; details: Pseudomonas aeruginosa
Summary of the method: as §1

[10] = tested on: A. baumannii ATCC 19606; assay: Broth microdilution MIC, A. baumannii ATCC 19606; format: cell-based; details: Acinetobacter baumannii
Summary of the method: as §1

[11] = tested on: N. gonorrhoeae WHO F; assay: Liquid broth MIC, N. gonorrhoeae WHO F; format: cell-based; details: Neisseria gonorrhoeae; N. gonorrhoeae WHO F, liquid broth; read-out: Minimum Inhibitory Concentration, N. gonorrhoeae WHO F
Summary of the method: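 Broth microdilution, 2-fold compound series; start inoculum 5×10^5 CFU/mL (OD600-adjusted, GC broth pH 7.2, Kellogg's suppl.). 40-42 h, 36° C, 5% CO2. MIC = lowest conc., no visible growth.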

[12] = P. aeruginosa PAO1, broth microdilution, read-out: MIC P. aeruginosa PAO1
[13] = ATCC19606, A. baumannii ATCC 19606, broth microdilution, read-out: MIC A. baumannii ATCC 19606
[14] = PAO1, read-out: MIC P. aeruginosa PAO1
[15] = ATCC19606, read-out: MIC A. baumannii ATCC 19606

SMILES | MIC [1] [µg/mL] | MIC [2] [µg/mL] | MIC [3] [µg/mL] | MIC [4] [µg/mL] | MIC [5] [µg/mL] | MIC [6] [µg/mL] | MIC [7] [µg/mL] | MIC [8] [µg/mL] | MIC [9, 12] [µg/mL] | MIC [10, 13] [µg/mL] | MIC [11] [µg/mL] | MIC [9, 14] [µg/mL] | MIC [10, 15] [µg/mL]
CCN1CCN(C(=O)N[C@@H](C(=O)N[C@H]2Cc3ccc(F)c(C(=O)O)c3OB2O)c2ccc(O)c(O)c2Cl)C(=O)C1=O [Example 189, (R)-3-((R)-2-(2-chloro-3,4-dihydroxyphenyl)-2-(4-ethyl-2,3-dioxopiperazine-1-carboxamido)acetamido)-7-fluoro-2-hydroxy-3,4-dihydro-2H-benzo[e][1,2]oxaborinine-8-carboxylic acid] | 0.5 to 1 | 0.5 to 1 | 0.5 to 1 | 0.5 to 1 | 0.5 to 1 | < 0.25 | < 0.25 | 2 to 4 | < 0.25 | < 0.25 | 0.25 to 0.5 (≈ 0.422 to 0.844 µM) | – | –
CCN1CCN(C(=O)NC(C(=O)N[C@H]2Cc3ccc(Cl)c(C(=O)O)c3OB2O)c2ncc(O)cc2F)C(=O)C1=O (stereo partly drawn) [Example 216, (3R)-7-chloro-3-(2-(4-ethyl-2,3-dioxopiperazine-1-carboxamido)-2-(3-fluoro-5-hydroxypyridin-2-yl)acetamido)-2-hydroxy-3,4-dihydro-2H-benzo[e][1,2]oxaborinine-8-carboxylic acid] | 0.5 to 1 | 8 to 16 | 2 to 4 | 32 to 64 | 32 to 64 | 32 to 64 | < 0.25 | 32 to 64 | > 128 | > 128 | < 0.125 | – | –
CCN1CCN(C(=O)NC(C(=O)N[C@H]2Cc3ccc(F)c(C(=O)O)c3OB2O)c2ccc(O)c(O)c2Cl)C(=O)C1=O (stereo partly drawn) [Example 124, (3R)-3-(2-(2-chloro-3,4-dihydroxyphenyl)-2-(4-ethyl-2,3-dioxopiperazine-1-carboxamido)acetamido)-7-fluoro-2-hydroxy-3,4-dihydro-2H-benzo[e][1,2]oxaborinine-8-carboxylic acid] | < 0.25 | 0.5 to 1 | 0.5 to 1 | 8 to 16 | 8 to 16 | < 0.25 | < 0.25 | > 128 | 0.5 to 1 | 0.5 to 1 | < 0.125 | – | –
CCN1C[C@H](C)N(C(=O)NC(C(=O)N[C@H]2Cc3ccc(F)c(C(=O)O)c3OB2O)c2ncc(O)cc2F)C(=O)C1=O (stereo partly drawn) [Example 208, (3R)-3-(2-((S)-4-ethyl-6-methyl-2,3-dioxopiperazine-1-carboxamido)-2-(3-fluoro-5-hydroxypyridin-2-yl)acetamido)-7-fluoro-2-hydroxy-3,4-dihydro-2H-benzo[e][1,2]oxaborinine-8-carboxylic acid] | < 0.25 | 2 to 4 | 2 to 4 | 32 to 64 | 8 to 16 | 32 to 64 | < 0.25 | 32 to 64 | > 128 | > 128 | < 0.125 | – | –
C[C@H]1CN(CCO)C(=O)C(=O)N1C(=O)NC(C(=O)N[C@H]1Cc2cccc(C(=O)O)c2OB1O)c1ccc(O)c(O)c1Cl (stereo partly drawn) [Example 224, (3R)-3-(2-(2-chloro-3,4-dihydroxyphenyl)-2-((S)-4-(2-hydroxyethyl)-6-methyl-2,3-dioxopiperazine-1-carboxamido)acetamido)-2-hydroxy-3,4-dihydro-2H-benzo[e][1,2]oxaborinine-8-carboxylic acid] | 0.5 to 1 | 0.5 to 1 | 2 to 4 | 2 to 4 | 2 to 4 | 0.5 to 1 | < 0.25 | 2 to 4 | 8 to 16 | < 0.25 | 4 to 8 (≈ 6.61 to 13.2 µM) | – | –
CCN1CCN(C(=O)NC(C(=O)N[C@H]2Cc3ccc(F)c(C(=O)O)c3OB2O)c2ccc(O)c(O)c2Cl)C(O)C1=O (stereo partly drawn) [Example 194, (3R)-3-(2-(2-chloro-3,4-dihydroxyphenyl)-2-(4-ethyl-2-hydroxy-3-oxopiperazine-1-carboxamido)acetamido)-7-fluoro-2-hydroxy-3,4-dihydro-2H-benzo[e][1,2]oxaborinine-8-carboxylic acid] | 8 to 16 | 8 to 16 | 8 to 16 | 8 to 16 | 8 to 16 | 0.5 to 1 | < 0.25 | 8 to 16 | – | – | 4 to 8 (≈ 6.73 to 13.5 µM) | 8 to 16 | 0.5 to 1
NCCN1CCN(C(=O)N[C@@H](C(=O)N[C@H]2Cc3cccc(C(=O)O)c3OB2O)c2ncc(O)cc2F)C(=O)C1=O [Example 225, (R)-3-((R)-2-(4-(2-aminoethyl)-2,3-dioxopiperazine-1-carboxamido)-2-(3-fluoro-5-hydroxypyridin-2-yl)acetamido)-2-hydroxy-3,4-dihydro-2H-benzo[e][1,2]oxaborinine-8-carboxylic acid] | 0.5 to 1 | 0.5 to 1 | 2 to 4 | 8 to 16 | 8 to 16 | 2 to 4 | 0.5 to 1 | 32 to 64 | > 128 | > 128 | 0.25 to 0.5 (≈ 0.448 to 0.896 µM) | – | –
CCN1CCN(C(=O)NC(C(=O)N[C@H]2Cc3ccc(F)c(C(=O)O)c3OB2O)c2ccc(O)c(O)c2F)C(=O)C1=O (stereo partly drawn) [Example 149, (3R)-3-(2-(4-ethyl-2,3-dioxopiperazine-1-carboxamido)-2-(2-fluoro-3,4-dihydroxyphenyl)acetamido)-7-fluoro-2-hydroxy-3,4-dihydro-2H-benzo[e][1,2]oxaborinine-8-carboxylic acid] | 0.5 to 1 | 0.5 to 1 | 2 to 4 | 2 to 4 | 2 to 4 | < 0.25 | < 0.25 | 2 to 4 | 2 to 4 | 8 to 16 | < 0.125 | – | –
NS(=O)(=O)c1ccc(C(NC(=O)N2CCN(CCF)C(=O)C2=O)C(=O)N[C@H]2Cc3cccc(C(=O)O)c3OB2O)c(F)c1 (stereo partly drawn) [Example 204, (3R)-3-(2-(2-fluoro-4-sulfamoylphenyl)-2-(4-(2-fluoroethyl)-2,3-dioxopiperazine-1-carboxamido)acetamido)-2-hydroxy-3,4-dihydro-2H-benzo[e][1,2]oxaborinine-8-carboxylic acid] | < 0.25 | 2 to 4 | 2 to 4 | > 128 | 32 to 64 | 8 to 16 | 0.5 to 1 | > 128 | > 128 | > 128 | 0.25 to 0.5 (≈ 0.401 to 0.802 µM) | – | –
CCN1CCN(C(=O)NC(C(=O)N[C@H]2Cc3ccc(Cl)c(C(=O)O)c3OB2O)c2ccc(O)c(O)c2Cl)C(=O)C1=O (stereo partly drawn) [Example 217, (3R)-7-chloro-3-(2-(2-chloro-3,4-dihydroxyphenyl)-2-(4-ethyl-2,3-dioxopiperazine-1-carboxamido)acetamido)-2-hydroxy-3,4-dihydro-2H-benzo[e][1,2]oxaborinine-8-carboxylic acid] | 2 to 4 | 2 to 4 | 2 to 4 | 2 to 4 | 2 to 4 | < 0.25 | < 0.25 | 2 to 4 | 2 to 4 | 0.5 to 1 | 0.25 to 0.5 (≈ 0.41 to 0.821 µM) | – | –
CCN1CCN(C(=O)NC(C(=O)N[C@H]2Cc3cccc(C(=O)O)c3OB2O)c2ccc(C(=O)O)cc2)C(=O)C1=O (stereo partly drawn) [Example 212, (3R)-3-(2-(4-carboxyphenyl)-2-(4-ethyl-2,3-dioxopiperazine-1-carboxamido)acetamido)-2-hydroxy-3,4-dihydro-2H-benzo[e][1,2]oxaborinine-8-carboxylic acid] | < 0.25 | 8 to 16 | 2 to 4 | > 128 | 32 to 64 | 8 to 16 | < 0.25 | > 128 | – | – | < 0.125 | 32 to 64 | > 128
CCN1C[C@H](C)N(C(=O)NC(C(=O)N[C@H]2Cc3ccc(F)c(C(=O)O)c3OB2O)c2ccc(O)c(O)c2Cl)C(=O)C1=O (stereo partly drawn) [Example 206, (3R)-3-(2-(2-chloro-3,4-dihydroxyphenyl)-2-((S)-4-ethyl-6-methyl-2,3-dioxopiperazine-1-carboxamido)acetamido)-7-fluoro-2-hydroxy-3,4-dihydro-2H-benzo[e][1,2]oxaborinine-8-carboxylic acid] | < 0.25 | < 0.25 | 0.5 to 1 | 2 to 4 | 2 to 4 | < 0.25 | < 0.25 | 2 to 4 | 2 to 4 | < 0.25 | 0.25 to 0.5 (≈ 0.412 to 0.824 µM) | – | –
